PMC12072338, “Allosteric Modulation of GCase Enhances Lysosomal Activity and Reduces ER Stress in GCase-Related Disorders” (International Journal of Molecular Sciences, 2025)
Like-named read-outs stand apart in the source and are kept apart here.

Target: T1, rhGCase (Cerezyme) (Homo sapiens, UniProt P04062, R534H)
T1 construct: Human full-length wild-type GCase protein (Cerezyme®, Genzyme, Naarden, Netherlands); purchased Genzyme, Naarden, Netherlands
T1 sequence (P04062 40-536 R534H): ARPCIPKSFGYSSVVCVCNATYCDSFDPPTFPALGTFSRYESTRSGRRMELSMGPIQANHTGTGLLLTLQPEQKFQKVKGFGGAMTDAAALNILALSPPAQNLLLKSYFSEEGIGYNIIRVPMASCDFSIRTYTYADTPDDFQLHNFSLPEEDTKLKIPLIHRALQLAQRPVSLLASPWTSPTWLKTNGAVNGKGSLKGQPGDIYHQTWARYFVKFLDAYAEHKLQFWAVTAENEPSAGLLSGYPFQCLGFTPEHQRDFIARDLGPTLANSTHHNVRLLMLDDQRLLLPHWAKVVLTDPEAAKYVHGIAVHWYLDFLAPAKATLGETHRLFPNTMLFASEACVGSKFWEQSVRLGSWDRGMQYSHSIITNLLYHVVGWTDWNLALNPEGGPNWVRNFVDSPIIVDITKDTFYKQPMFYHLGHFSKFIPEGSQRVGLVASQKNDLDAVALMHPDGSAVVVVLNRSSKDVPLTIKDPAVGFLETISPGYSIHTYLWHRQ
Assay: nanoDSF thermal stability of rhGCase
Format: binding
Experimental: The stabilizing effects of GT-02287 and GT-02329 on GCase were assessed by nanoDSF. rhGCase protein (Cerezyme®, Genzyme, Naarden, Netherlands) was prepared at 0.1 mg/mL in two buffers: buffer 1 (10 mmol/L Citric Acid, 20 mmol/L Na2HPO4, pH 7.0) and buffer 2 (50 mmol/L Histidine, 150 mmol/L NaCl, pH 5.0). DMSO was added to a final concentration of 2%.
Samples were loaded into nanoDSF standard capillaries and analyzed using the Prometheus NT.48 instrument (NanoTemper Technologies, Munich, Germany). The thermal unfolding of GCase was monitored by tracking intrinsic fluorescence changes in tryptophan and tyrosine residues as the temperature increased from 20 °C to 95 °C at 2 °C/min. Each condition was run in duplicate at 25 μM and 100 μM compound concentrations. Melting temperatures (Tm) were determined from the fluorescence curves, and ΔTm shifts between compound-treated and control samples were calculated. The significance of Tm shifts was assessed using two criteria: an absolute ΔTm shift greater than 1.0 °C (instrumental criterion) and an absolute ΔTm standard deviation of 0.2 °C or less (statistical criterion).

- Effect on protein thermal stability at pH 5.0 (pH 5.0): demonstrated stabilization
- ΔTm at 100 µM (pH 5.0, 100 µM compound, mean ± SD of two experiments, read-out: ΔTm at pH 5.0 and 100 µM): 3 °C
- ΔTm at 25 µM (pH 7.0, 25 µM compound, mean ± SD of two experiments): 9.9 ± 0.2 °C
- ΔTm at 100 µM (pH 7.0, 100 µM compound, mean ± SD of two experiments, read-out: ΔTm at pH 7.0 and 100 µM): 11.5 °C
Compound: OC[C@H]1CNC[C@@H](O)[C@@H]1O [IFG, isofagomine]
